*1 amine or outer side, *2 acyl side, *3 side chain or, on linkers, in order; H or OH if unused. Where a SMILES comes first, the peptide text is derived from it. Side-chain parts run from the residue outwards. [ ]: non-standard residue; d: D form. The star is where a group is joined. γGlu = O=C(O)[C@H](CCC(=O)[*:2])N[*:1]; Stearoyl = CCCCCCCCCCCCCCCCCC(=O)*; Palmitoyl = CCCCCCCCCCCCCCCC(=O)*; Aib = CC(C)(N)C(=O)O
Experiments:
Assay type in all cases: cell-based
Details in all cases: Table 7; cAMP formation
[1] = target: T1, human GLP-1 receptor (hGLP-1 R) (Homo sapiens, UniProt P43220); test: cAMP response of HEK-293 cells stably expressing human GLP-1 receptor (HTRF)
T1 construct: expressed in transfected cells
T1 sequence (P43220 24-463): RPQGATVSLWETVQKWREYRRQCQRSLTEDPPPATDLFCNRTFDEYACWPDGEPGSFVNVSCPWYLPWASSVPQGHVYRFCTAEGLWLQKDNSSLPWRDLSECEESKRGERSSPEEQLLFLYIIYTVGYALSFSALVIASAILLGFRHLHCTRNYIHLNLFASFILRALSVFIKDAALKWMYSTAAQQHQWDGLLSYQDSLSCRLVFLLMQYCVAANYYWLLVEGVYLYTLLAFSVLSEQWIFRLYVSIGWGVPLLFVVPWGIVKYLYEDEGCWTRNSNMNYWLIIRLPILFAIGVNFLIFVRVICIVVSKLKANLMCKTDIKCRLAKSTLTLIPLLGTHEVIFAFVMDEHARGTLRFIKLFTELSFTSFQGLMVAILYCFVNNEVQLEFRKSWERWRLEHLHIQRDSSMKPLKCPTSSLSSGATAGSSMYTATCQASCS
Summary of the method: (§1)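 Intracellular cAMP is quantified by HTRF following a 30-minute room-temperature incubation of cell suspensions (400000 cells/ml) with test compound in HBSS, 20 mM HEPES, 0.1% BSA and 2 mM IBMX.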

[2] = target: T2, human GIP receptor (hGIP R) (Homo sapiens, UniProt P48546); test: cAMP response of HEK-293 cells stably expressing human GIP receptor (HTRF)
T2 construct: expressed in transfected cells
T2 sequence (P48546 22-466): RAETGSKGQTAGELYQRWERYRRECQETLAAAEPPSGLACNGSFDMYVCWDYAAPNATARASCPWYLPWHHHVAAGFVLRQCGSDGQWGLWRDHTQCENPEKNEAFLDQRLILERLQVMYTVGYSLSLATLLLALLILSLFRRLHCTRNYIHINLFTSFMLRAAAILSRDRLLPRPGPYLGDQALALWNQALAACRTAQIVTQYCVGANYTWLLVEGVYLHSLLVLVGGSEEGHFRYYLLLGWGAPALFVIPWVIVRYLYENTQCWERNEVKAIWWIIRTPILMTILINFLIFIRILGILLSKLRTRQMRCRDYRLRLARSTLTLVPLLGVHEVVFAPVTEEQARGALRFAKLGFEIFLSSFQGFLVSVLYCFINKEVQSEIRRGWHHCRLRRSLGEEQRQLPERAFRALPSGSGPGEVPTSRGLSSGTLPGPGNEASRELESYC
Summary of the method: as §1

[3] = target: T3, human glucagon receptor (hGLUC R) (Homo sapiens, UniProt P47871); test: cAMP response of HEK-293 cells stably expressing human glucagon receptor (HTRF)
T3 construct: expressed in transfected cells
T3 sequence (P47871 26-477): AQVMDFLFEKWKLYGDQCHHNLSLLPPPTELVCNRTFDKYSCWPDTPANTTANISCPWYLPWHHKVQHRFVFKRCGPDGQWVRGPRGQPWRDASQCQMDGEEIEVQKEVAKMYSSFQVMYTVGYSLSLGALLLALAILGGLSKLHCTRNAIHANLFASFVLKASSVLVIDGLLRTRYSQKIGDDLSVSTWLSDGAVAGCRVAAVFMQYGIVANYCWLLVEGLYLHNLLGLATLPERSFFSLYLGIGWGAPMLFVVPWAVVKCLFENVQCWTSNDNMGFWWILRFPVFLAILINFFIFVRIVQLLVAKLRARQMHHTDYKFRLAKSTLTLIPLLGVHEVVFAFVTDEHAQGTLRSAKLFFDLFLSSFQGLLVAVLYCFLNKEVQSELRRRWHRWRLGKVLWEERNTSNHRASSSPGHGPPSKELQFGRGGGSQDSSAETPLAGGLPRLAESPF
Summary of the method: as §1

Question: Which EC50 [1] does the source give for `CCCCCCCCCCCCCCCC(=O)N[C@@H](CCC(=O)NCCCC[C@H](NC(=O)[C@H](CCC(N)=O)NC(=O)[C@@H](NC(=O)[C@H](CO)NC(=O)[C@H](CC(C)C)NC(=O)[C@H](CC(=O)O)NC(=O)[C@H](CO)NC(=O)[C@@H](NC(=O)[C@H](Cc1ccccc1)NC(=O)[C@@H](NC(=O)CNC(=O)[C@H](CCC(=O)O)NC(=O)C(C)(C)NC(=O)[C@@H](N)Cc1ccc(O)cc1)[C@@H](C)O)[C@@H](C)O)[C@@H](C)CC)C(=O)N[C@@H](CCC(=O)O)C(=O)N[C@@H](CCC(=O)O)C(=O)N[C@@H](CCC(N)=O)C(=O)N[C@@H](C)C(=O)N[C@@H](C)C(=O)N[C@@H](Cc1c[nH]cn1)C(=O)N[C@@H](CCC(=O)O)C(=O)N[C@@H](Cc1ccccc1)C(=O)N[C@H](C(=O)N[C@@H](CCC(=O)O)C(=O)N[C@@H](Cc1c[nH]c2ccccc12)C(=O)N[C@@H](CC(C)C)C(=O)N[C@@H](CCCCN)C(=O)N[C@@H](CCCNC(=N)N)C(=O)NC(C)(C)C(=O)NCC(=O)N1CCC[C@H]1C(=O)N[C@@H](CO)C(=O)N[C@@H](CO)C(=O)NCC(=O)N[C@@H](C)C(=O)N1CCC[C@H]1C(=O)N1CCC[C@H]1C(=O)N1CCC[C@H]1C(=O)N[C@@H](CO)C(N)=O)[C@@H](C)CC)C(=O)O` [SEQ ID NO: 38, Y-Aib-E-G-T-F-T-S-D-L-S-I-Q-K(yE-x53)-E-E-Q-A-A-H-E-F-I-E-W-L-K-R-Aib-G-P-S-S-G-A-P-P-P-S-NH2] here?
Answer: 9 pM

Question: What about the EC50 [2] of the same molecule?
Answer: 7.4 pM

Question: What about the EC50 [3] of the same molecule?
Answer: 22500 pM

Question: With `CCCCCCCCCCCCCCCC(=O)N[C@@H](CCC(=O)NCCCC[C@H](NC(=O)[C@H](CCC(N)=O)NC(=O)[C@@H](NC(=O)[C@H](CO)NC(=O)[C@H](CC(C)C)NC(=O)[C@H](CC(=O)O)NC(=O)[C@H](CO)NC(=O)[C@@H](NC(=O)[C@H](Cc1ccccc1)NC(=O)[C@@H](NC(=O)CNC(=O)[C@H](CCC(N)=O)NC(=O)C(C)(C)NC(=O)[C@@H](N)Cc1ccc(O)cc1)[C@@H](C)O)[C@@H](C)O)[C@@H](C)CC)C(=O)N[C@@H](CCC(=O)O)C(=O)N[C@@H](CCCCN)C(=O)N[C@@H](CC(C)C)C(=O)N[C@@H](C)C(=O)N[C@@H](C)C(=O)NC(C)(C)C(=O)N[C@@H](CCC(=O)O)C(=O)N[C@@H](Cc1ccccc1)C(=O)N[C@H](C(=O)N[C@@H](CCC(=O)O)C(=O)N[C@@H](Cc1c[nH]c2ccccc12)C(=O)N[C@@H](CC(C)C)C(=O)N[C@@H](CCCCN)C(=O)N[C@@H](CC(N)=O)C(=O)N[C@H](C(=O)NCC(=O)N1CCC[C@H]1C(=O)N[C@@H](CO)C(=O)N[C@@H](CO)C(=O)NCC(=O)N[C@@H](C)C(=O)N1CCC[C@H]1C(=O)N1CCC[C@H]1C(=O)N1CCC[C@H]1C(=O)N[C@@H](CO)C(N)=O)[C@@H](C)O)[C@@H](C)CC)C(=O)O` [SEQ ID NO: 8, Y-Aib-Q-G-T-F-T-S-D-L-S-I-Q-K(yE-x53)-E-K-L-A-A-Aib-E-F-I-E-W-L-K-N-T-G-P-S-S-G-A-P-P-P-S-NH2] (H-Y[Aib]QGTFTSDLSIQK([γGlu-Palmitoyl])EKLAA[Aib]EFIEWLKNTGPSSGAPPPS-NH2) as the molecule, how does the EC50 [1] read?
Answer: 8.7 pM

Question: And the EC50 [2]?
Answer: 26 pM

Question: What about the EC50 [3] of the same molecule?
Answer: 803 pM

Question: For `CCCCCCCCCCCCCCCC(=O)N[C@@H](CCC(=O)NCCCC[C@H](NC(=O)[C@H](CCC(N)=O)NC(=O)[C@@H](NC(=O)[C@H](CO)NC(=O)[C@H](CC(C)C)NC(=O)[C@H](CC(=O)O)NC(=O)[C@H](CO)NC(=O)[C@@H](NC(=O)[C@H](Cc1ccccc1)NC(=O)[C@@H](NC(=O)CNC(=O)[C@H](CCC(N)=O)NC(=O)C(C)(C)NC(=O)[C@@H](N)Cc1ccc(O)cc1)[C@@H](C)O)[C@@H](C)O)[C@@H](C)CC)C(=O)N[C@@H](CCC(=O)O)C(=O)N[C@@H](CCCCN)C(=O)N[C@@H](CCCNC(=N)N)C(=O)N[C@@H](C)C(=O)N[C@H](C(=O)NC(C)(C)C(=O)N[C@@H](CCC(=O)O)C(=O)N[C@@H](Cc1ccccc1)C(=O)N[C@H](C(=O)N[C@@H](CCC(=O)O)C(=O)N[C@@H](Cc1c[nH]c2ccccc12)C(=O)N[C@@H](CC(C)C)C(=O)N[C@@H](CCCCN)C(=O)N[C@@H](C)C(=O)NCC(=O)NCC(=O)N1CCC[C@H]1C(=O)N[C@@H](CO)C(=O)N[C@@H](CO)C(=O)NCC(=O)N[C@@H](C)C(=O)N1CCC[C@H]1C(=O)N1CCC[C@H]1C(=O)N1CCC[C@H]1C(=O)N[C@@H](CO)C(N)=O)[C@@H](C)CC)C(C)C)C(=O)O` [SEQ ID NO: 26, Y-Aib-Q-G-T-F-T-S-D-L-S-I-Q-K(yE-x53)-E-K-R-A-V-Aib-E-F-I-E-W-L-K-A-G-G-P-S-S-G-A-P-P-P-S-NH2] (H-Y[Aib]QGTFTSDLSIQK([γGlu-Palmitoyl])EKRAV[Aib]EFIEWLKAGGPSSGAPPPS-NH2), which EC50 [1] is on record?
Answer: 17.6 pM

Question: What about the EC50 [2] of the same molecule?
Answer: 5.3 pM

Question: And the EC50 [3]?
Answer: 300 pM

Question: What does the source list for `CCCCCCCCCCCCCCCCCC(=O)N[C@@H](CCC(=O)NCCCC[C@H](NC(=O)[C@H](CCC(N)=O)NC(=O)[C@H](CCCCN)NC(=O)[C@H](CO)NC(=O)[C@H](CC(C)C)NC(=O)[C@H](CC(=O)O)NC(=O)[C@H](CO)NC(=O)[C@@H](NC(=O)[C@H](Cc1ccccc1)NC(=O)[C@@H](NC(=O)CNC(=O)[C@H](CCC(N)=O)NC(=O)C(C)(C)NC(=O)[C@@H](N)Cc1ccc(O)cc1)[C@@H](C)O)[C@@H](C)O)C(=O)N[C@@H](CC(=O)O)C(=O)N[C@@H](CCC(=O)O)C(=O)N[C@@H](CCC(=O)O)C(=O)N[C@@H](C)C(=O)N[C@@H](C)C(=O)N[C@@H](CCCNC(=N)N)C(=O)N[C@@H](CC(C)C)C(=O)N[C@@H](Cc1ccccc1)C(=O)N[C@H](C(=O)N[C@@H](CCC(=O)O)C(=O)N[C@@H](Cc1c[nH]c2ccccc12)C(=O)N[C@@H](CC(C)C)C(=O)N[C@@H](CCCCN)C(=O)N[C@@H](C)C(=O)NCC(=O)NCC(=O)N1CCC[C@H]1C(=O)N[C@@H](CO)C(=O)N[C@@H](CO)C(=O)NCC(=O)N[C@@H](C)C(=O)N1CCC[C@H]1C(=O)N1CCC[C@H]1C(=O)N1CCC[C@H]1C(=O)N[C@@H](CO)C(N)=O)[C@@H](C)CC)C(=O)O` [SEQ ID NO: 60, Y-Aib-Q-G-T-F-T-S-D-L-S-K-Q-K(yE-x70)-DEEAARLFIEWLKAGGPSSGAPPPS-NH2] (H-Y[Aib]QGTFTSDLSKQK([γGlu-Stearoyl])DEEAARLFIEWLKAGGPSSGAPPPS-NH2)?
Answer: EC50 [1]: 5.3 pM; EC50 [2]: 16.8 pM; EC50 [3]: 9.1 pM

Question: Which EC50 [1] does the source give for `CCCCCCCCCCCCCCCC(=O)N[C@@H](CCC(=O)NCCCC[C@H](NC(=O)[C@H](CCC(N)=O)NC(=O)[C@H](CCCCN)NC(=O)[C@H](CO)NC(=O)[C@H](CC(C)C)NC(=O)[C@H](CC(=O)O)NC(=O)[C@H](CO)NC(=O)[C@@H](NC(=O)[C@H](Cc1ccccc1)NC(=O)[C@@H](NC(=O)CNC(=O)[C@H](CCC(N)=O)NC(=O)C(C)(C)NC(=O)[C@@H](N)Cc1ccc(O)cc1)[C@@H](C)O)[C@@H](C)O)C(=O)N[C@@H](CC(=O)O)C(=O)N[C@@H](CO)C(=O)N[C@@H](CCCNC(=N)N)C(=O)N[C@@H](C)C(=O)N[C@@H](C)C(=O)N[C@@H](CCC(N)=O)C(=O)N[C@@H](CC(=O)O)C(=O)N[C@@H](Cc1ccccc1)C(=O)N[C@H](C(=O)N[C@@H](CCC(=O)O)C(=O)N[C@@H](Cc1c[nH]c2ccccc12)C(=O)N[C@@H](CC(C)C)C(=O)N[C@@H](CCCCN)C(=O)N[C@@H](C)C(=O)NCC(=O)NCC(=O)N1CCC[C@H]1C(=O)N[C@@H](CO)C(=O)N[C@@H](CO)C(=O)NCC(=O)N[C@@H](C)C(=O)N1CCC[C@H]1C(=O)N1CCC[C@H]1C(=O)N1CCC[C@H]1C(=O)N[C@@H](CO)C(N)=O)[C@@H](C)CC)C(=O)O` [SEQ ID NO: 66, Y-Aib-Q-G-T-F-T-S-D-L-S-K-Q-K(yE-x53)-DSRAAQDFIEWLKAGGPSSGAPPPS-NH2] (H-Y[Aib]QGTFTSDLSKQK([γGlu-Palmitoyl])DSRAAQDFIEWLKAGGPSSGAPPPS-NH2) here?
Answer: 3.6 pM

Question: What about the EC50 [2] of the same molecule?
Answer: 82.6 pM

Question: And the EC50 [3]?
Answer: 5.2 pM

Question: What does the source list for `CCCCCCCCCCCCCCCC(=O)N[C@@H](CCC(=O)NCCCC[C@H](NC(=O)[C@H](CCC(N)=O)NC(=O)[C@@H](NC(=O)[C@H](CO)NC(=O)[C@H](CC(C)C)NC(=O)[C@H](CC(=O)O)NC(=O)[C@H](CO)NC(=O)[C@@H](NC(=O)[C@H](Cc1ccccc1)NC(=O)[C@@H](NC(=O)CNC(=O)[C@H](CCC(N)=O)NC(=O)C(C)(C)NC(=O)[C@@H](N)Cc1ccc(O)cc1)[C@@H](C)O)[C@@H](C)O)[C@@H](C)CC)C(=O)N[C@@H](CCC(=O)O)C(=O)N[C@@H](CCCCN)C(=O)N[C@@H](CCCNC(=N)N)C(=O)N[C@@H](CC(C)C)C(=O)N[C@@H](C)C(=O)NC(C)(C)C(=O)N[C@@H](CCC(=O)O)C(=O)N[C@@H](Cc1ccccc1)C(=O)N[C@H](C(=O)N[C@@H](CCC(=O)O)C(=O)N[C@@H](Cc1c[nH]c2ccccc12)C(=O)N[C@@H](CC(C)C)C(=O)N[C@@H](CCCCN)C(=O)N[C@@H](CC(N)=O)C(=O)N[C@H](C(=O)NCC(=O)N1CCC[C@H]1C(=O)N[C@@H](CO)C(=O)N[C@@H](CO)C(=O)NCC(=O)N[C@@H](C)C(=O)N1CCC[C@H]1C(=O)N1CCC[C@H]1C(=O)N1CCC[C@H]1C(=O)N[C@@H](CO)C(N)=O)[C@@H](C)O)[C@@H](C)CC)C(=O)O` [SEQ ID NO: 19, Y-Aib-Q-G-T-F-T-S-D-L-S-I-Q-K(yE-x53)-E-K-R-L-A-Aib-E-F-I-E-W-L-K-N-T-G-P-S-S-G-A-P-P-P-S-NH2] (H-Y[Aib]QGTFTSDLSIQK([γGlu-Palmitoyl])EKRLA[Aib]EFIEWLKNTGPSSGAPPPS-NH2)?
Answer: EC50 [1]: 8.5 pM; EC50 [2]: 91.5 pM; EC50 [3]: 137 pM
